The source of these data is ChEMBL document CHEMBL4354779, “Selective modulation of the cannabinoid type 1 (CB1) receptor as an emerging platform for the treatment of neuropathic pain” (Medchemcomm, 2019).

Each structure is given as a SMILES string.

For data set [1], the target named is T1, Cannabinoid receptor 2 (Homo sapiens, UniProt P34972). Description: Inhibition of 3H-CP55,940 tracer binding to human CB2 receptor expressed in Sf9 insect cell membranes after 1 hr by scintillation counting method.
T1 sequence (P34972 whole entry): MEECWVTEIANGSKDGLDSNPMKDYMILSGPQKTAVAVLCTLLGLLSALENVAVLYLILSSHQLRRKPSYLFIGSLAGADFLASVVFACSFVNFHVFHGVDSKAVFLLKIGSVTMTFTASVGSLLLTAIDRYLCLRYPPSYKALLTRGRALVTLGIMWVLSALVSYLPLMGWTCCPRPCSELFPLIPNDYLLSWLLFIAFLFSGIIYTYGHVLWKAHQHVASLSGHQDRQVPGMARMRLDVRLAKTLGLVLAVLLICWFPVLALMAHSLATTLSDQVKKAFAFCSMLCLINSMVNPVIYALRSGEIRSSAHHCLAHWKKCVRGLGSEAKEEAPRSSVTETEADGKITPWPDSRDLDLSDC
For data set [2], the system named is Rattus norvegicus. Nature of the data set: Antiallodynic activity in Sprague-Dawley rat model of L5/L6 spinal nerve ligation-induced neuropathic pain at 2.5 umol/kg by up-and-down method relative to control. Type of data set: functional.
The target of data set [3] is T2, Cannabinoid receptor 1 (Homo sapiens, UniProt P21554). Nature of the data set: Agonist activity at human CB1 receptor expressed in HEK293 cell membranes after 1 hr by scintillation counting method.
T2 sequence (P21554 whole entry): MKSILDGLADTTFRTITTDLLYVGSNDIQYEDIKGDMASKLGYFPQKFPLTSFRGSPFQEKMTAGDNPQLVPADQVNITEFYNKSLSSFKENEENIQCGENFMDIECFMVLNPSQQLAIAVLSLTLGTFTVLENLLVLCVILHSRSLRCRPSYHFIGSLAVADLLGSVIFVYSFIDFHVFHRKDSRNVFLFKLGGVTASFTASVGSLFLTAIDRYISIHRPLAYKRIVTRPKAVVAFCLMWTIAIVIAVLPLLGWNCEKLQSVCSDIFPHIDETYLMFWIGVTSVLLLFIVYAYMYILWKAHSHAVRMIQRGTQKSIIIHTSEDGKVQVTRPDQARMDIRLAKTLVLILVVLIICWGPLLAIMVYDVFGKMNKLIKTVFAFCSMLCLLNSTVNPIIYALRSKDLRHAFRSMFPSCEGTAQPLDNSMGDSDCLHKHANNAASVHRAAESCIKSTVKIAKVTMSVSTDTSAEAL
The nature of data set [4]: Ratio of drug uptake in C57BL/6 mouse brain to plasma at 0.5 to 27 umol/kg, sc measured after 60 mins by protein precipitation based LC-ESI-MS analysis. Type of data set: ADME, organism-based. The settings on record: 1 h.
A short description of data set [5]: Ratio of drug uptake in Sprague-Dawley rat brain to plasma at 3 umol/kg, sc measured after 60 mins by protein precipitation based LC-ESI-MS analysis. Type of data set: ADME, organism-based. The conditions noted are these: 1 h.
For data set [6], the target named is T2, Cannabinoid receptor 1. Description: Inhibition of 3H-CP55,940 tracer binding to human CB1 receptor expressed in HEK293 cell membranes after 1 hr by scintillation counting method.
The target of data set [7] is T2, Cannabinoid receptor 1. Nature of the data set: Agonist activity at human CB1 receptor.
Data set [8] concerns the target T1, Cannabinoid receptor 2. Nature of the data set: Agonist activity at human CB2 receptor.
Data set [9] can be described thus: Brain to plasma permeability coefficient, Kp of compound in rat. It counts as ADME.
The nature of data set [10]: Ratio of drug uptake in C57BL/6 mouse brain to plasma at 1 to 16 umol/kg, sc measured after 60 mins by protein precipitation based LC-ESI-MS analysis. It counts as ADME, organism-based.
Data set [11] is described as follows: Ratio of drug uptake in Sprague-Dawley rat brain to plasma at 1 to 8 umol/kg, sc measured after 60 mins by protein precipitation based LC-ESI-MS analysis. It counts as ADME, organism-based.
The test system of data set [12] is Rattus norvegicus. Description: Antiallodynic activity in Sprague-Dawley rat model of L5/L6 spinal nerve ligation-induced neuropathic pain at 8 umol/kg by up-and-down method relative to control. Type of data set: functional.

On to `CCOc1ccc(Cc2nc3cc(N(C)S(=O)(=O)c4cccs4)ccc3n2CC2CCCCC2)nc1`, for which the IC50 on Cannabinoid receptor 2 [1] is 1 nM; at Cannabinoid receptor 1 [6], 3.98 nM. In the data set with Rattus norvegicus [2], this molecule had an Activity of 100%. For the same molecule, on Cannabinoid receptor 1 [3], a half-maximal response (EC50) required 10 nM. The Ratio in data set [4] amounted to 5%; in data set [5] it was 7%.
With `CC(C)(C)c1nc2cc(NS(C)(=O)=O)ccc2n1CC1CCC(F)(F)CC1`, the Ki on Cannabinoid receptor 1 [7] was 11.7 nM; at Cannabinoid receptor 2 [8] it was 0.871 nM. The Kp in data set [9] stood at 0.04.
On to `Cc1c(C(=O)c2cccc3ccccc23)c2cccc3c2n1C[C@H](CN1CCOCC1)O3`, for which the Kp at 1 h in data set [10] came out at 4.2; in [11], 2.2. In the data set on Rattus norvegicus [12], the Activity is 100%.

What is called IC50 is the concentration needed to halve the response being measured. Low readings indicate higher potency, high ones lower potency. For orientation: EC50 means the midpoint of the concentration-response curve. A higher EC50 goes with lower potency in that assay. A word on the Ki: it is a measure of affinity in units of concentration, obtained from inhibition or displacement. Low readings indicate a stronger hold on the target, high ones a looser hold on the target. In general, Kp refers to the ratio of the level in a tissue or fluid to that in plasma or blood.
